Reference: publication PMC13091788 (NPJ Aging, 2026)

Columns and labels:
[1] = Unbound fraction in mouse plasma (equilibrium dialysis); type: in vitro ADME; conditions: pH 7.4, equilibrium dialysis 6 h, 37 °C, read-out: Plasma protein binding (fraction unbound) mouse (pH7.4)
Experimental: An equilibrium dialysis apparatus was used to determine the unbound fraction for each compound in human or mouse plasma. High Throughput Dialysis Model HTD96b and Dialysis Membrane Strips MWCO 12–14 kDa (HTDialysis) were used. Plasma was spiked with the test compound (1 μM), and 150 μL aliquots were loaded into the apparatus and dialyzed versus 150 μL of 0.1 M phosphate buffer (pH 7.4) at 37 °C for 6 h by rotation at 80 rpm. The unbound fraction was calculated as the ratio of receiver side (buffer) to donor side (plasma) concentrations. Two technical replicates were performed.

[2] = parameters: method as in PMID 24593257; conditions: cited from earlier work
C2C12 cells [3] = experiment: Mitochondrial membrane potential (JC-1); type: cell-based, mouse; conditions: C2C12, Q-BRB or AcA-BRB 5 or 10 μM, 48 h
Experimental: Mitochondrial membrane potential was assessed using the JC-1 dye (JC-1, T3168, Thermo Fisher Scientific). Cells cultured in 96-well plates were washed twice with PBS and incubated with 1 μM JC-1 for 30 min at 37 °C in the dark. After incubation, cells were washed with PBS, and fluorescence intensities at 590 nm (red) and 530 nm (green) were measured using a microplate reader. The 590/530 nm fluorescence ratio was calculated and used as an index of mitochondrial membrane potential.

C2C12 cells [4] = experiment: Mitochondrial morphology analysis (anti-Tom20, MiNA); type: cell-based, mouse; conditions: C2C12, Q-BRB or AcA-BRB 10 μM, 48 h
Experimental: Cells were fixed with 4% paraformaldehyde in PBS for 15 min at 37 °C, washed three times with PBS, and permeabilized with 0.1% Triton X-100 in PBS for 10 min at room temperature (RT). After three additional washes with PBS, cells were blocked with 10% bovine serum albumin (BSA) in PBS for 10 min at RT. Cells were incubated with anti-Tom20 primary antibody (1:750 dilution, 11802-1-AP, Proteintech) in PBS containing 5% BSA for 1 h at RT, followed by three PBS washes. Hoechst 33342 (1:2000 dilution) and Alexa Fluor-conjugated secondary antibody (1:500 dilution, A11029, Invitrogen) in PBS containing 5% BSA were applied for 30 min at RT.
After three final PBS washes, cells were mounted with Fluorescent Mounting Medium (S3023, Dako), and imaged using an FV3000 confocal laser scanning microscope (Olympus). Images were acquired as Z-stacks with 0.2 μm intervals and reconstructed into maximum intensity projections using Fiji/ImageJ software.
Mitochondrial morphology was quantified using the MiNA plugin for Fiji (https://imagej.net/plugins/mina). Thirty cells per group were randomly selected for analysis. Average mitochondrial length and other morphological parameters were calculated according to the plugin’s standard analysis pipeline.

86-week-old aged mice = experiment: Survival analysis in aged mice on normal diet; type: in vivo, mouse; conditions: 0.5 mg/mL in drinking water, from 86 weeks of age
Excerpt: All experimental procedures were approved by the Ethics Review Committee for Animal Experimentation at Kumamoto University, Kumamoto, Japan (approval No. A 2024-083). Procedures followed the guidelines and recommendations outlined by the ILAR Guide for the Care and Use of Laboratory Animals (8th Edition, 2011). Prior to tissue collection, mice were euthanized under isoflurane anesthesia, followed by cervical dislocation to ensure rapid euthanasia, a procedure also employed during sacrifice for tissue harvesting. Euthanasia was performed when animals met the established criteria for humane endpoints, specifically a body weight loss exceeding 20% over a 3-day period or 25% over a 1-week period, in accordance with the Kumamoto University Ethics Review Committee for Animal Experimentation above. All animals fed a normal diet (CE-2, CLEA) were randomly assigned to two groups: tap water only and tap water supplemented with AcA-BRB (0.5 mg/mL). Mice were housed in an animal facility with lighting cycles automatically controlled (12 h light/12 h dark), maintained at a stable temperature of 22 ± 2 °C and a relative humidity of 40–80%. C57BL/6NJcl wild-type (WT) male mice aged 2, 20, and 24 months were used in this study.

C2C12 cells [5] = experiment: Mitochondrial ROS (4-HNE in isolated mitochondrial fractions); type: cell-based, mouse; conditions: C2C12, Q-BRB or AcA-BRB 5 or 10 μM, 24 h
Excerpt: Proteins in sample buffer were separated by SDS-PAGE and transferred to Immobilon-P PVDF membranes (IPVH00010, Millipore). Blots were probed with the indicated antibodies, and protein bands on the blot were visualized using Chemi-Lumi One L (07880-70, Nacalai Tesque) or Immobilon Western Chemiluminescent HRP Substrate (WBKLS0500, Millipore). Band images were captured using a LuminoGraph I imager (WSE-6100, ATTO). Relative band intensities were quantified using Fiji/ImageJ software. Unprocessed western blot images corresponding to the data presented in the main and supplementary figures are provided in Supplementary Figures 11–16. Mitochondria were isolated using differential centrifugation. Cells were washed twice with ice-cold PBS, harvested by scraping, and collected by centrifugation at 500 × g for 5 min at 4 °C. The resulting cell pellets were resuspended in ice-cold mitochondrial isolation buffer (250 mM sucrose, 10 mM HEPES-KOH pH 7.4, 1 mM EDTA, and protease inhibitor cocktail) and incubated on ice for 10 min. Cells were mechanically disrupted on ice using a 27 G needle. The homogenates were centrifuged at 800 × g for 10 min at 4 °C to remove nuclei and cellular debris. The supernatants were transferred to new tubes and centrifuged at 8000 × g for 10 min at 4 °C to obtain the mitochondrial fraction. […] Protein concentration was measured using the BCA Protein Assay Kit (Takara Bio).

| SMILES | fraction unbound at 6 h, 1 μM [1] | water solubility (literature) [2] | mitochondrial membrane potential (JC-1 590/530 nm) (C2C12 cells [3]) | mitochondrial elongation (C2C12 cells [4]) | survival rate (86-week-old aged mice) | mitochondrial ROS (4-HNE levels in isolated mitochondrial fractions) (C2C12 cells [5]) |
| --- | --- | --- | --- | --- | --- | --- |
| COc1ccc2cc3[n+](cc2c1O)CCc1cc2c(cc1-3)OCO2 [AcA-BRB, berberrubine acetic acid adduct] | 0.203 |  |  |  |  |  |
| COc1ccc2cc3n(cc-2c1=O)CCc1cc2c(cc1-3)OCO2 [Q-BRB, quinoid-type berberrubine] | 0.162 | water-insoluble |  |  |  |  |
| COc1ccc2cc3[n+](cc2c1O)CCc1cc2c(cc1-3)OCO2 [berberrubine] |  |  | remained unchanged | significantly enhanced | did not significantly affect | modest increase |
